Assay results reported in patent US4558134A, “Certain phenoxy-pyridine-carbonitriles having antiviral activity” (The Dow Chemical Company, priority 1983, dated 1985).
In brackets after ≈: the same amount, converted by molar mass. Where two headings read alike, the source gives them in different places.

Tests used:
[1] = system: rhinovirus type 1A (RV-1A); assay: Tissue culture testing, reduction of viral cytopathic effect, RV-1A; assay type: cell-based; details: Enterovirus, read-out: Lowest concentration of the compound necessary to cause a 50 percent reduction in cytopathic effect, RV-1A
[2] = system: rhinovirus type 39 (RV-39); assay: Tissue culture testing, reduction of viral cytopathic effect, RV-39; assay type: cell-based; details: Enterovirus, read-out: Lowest concentration of the compound necessary to cause a 50 percent reduction in cytopathic effect, RV-39
[3] = system: Coxsackie A21 virus; assay: Continuous Oral Feeding test in mice challenged IP with Coxsackie A21 virus; details: 0.06% by weight in diet; 10 days; >3.84 active (95% confidence level)
[4] = in vitro; details: human, hela cells
[5] = system: rhinovirus type 2 (RV-2); assay: Tissue culture testing, reduction of viral cytopathic effect, RV-2; assay type: cell-based; details: Enterovirus, read-out: Lowest concentration of the compound necessary to cause a 50 percent reduction in cytopathic effect, RV-2
[6] = system: Coxsackie A21 virus (Cox A21); assay: Tissue culture testing, reduction of viral cytopathic effect, Cox A21; assay type: cell-based; details: HeLa cells, 48 and 72 hours, read-out: Lowest concentration of the compound necessary to cause a 50 percent reduction in cytopathic effect, CoxA21
[7] = system: rhinovirus type 64 (RV-64); assay: Tissue culture testing, reduction of viral cytopathic effect, RV-64; assay type: cell-based; details: Enterovirus, read-out: Lowest concentration of the compound necessary to cause a 50 percent reduction in cytopathic effect, RV-64
[8] = system: polio virus type 2 (Polio-2); assay: organism not typed; assay type: cell-based; details: HeLa, read-out: Lowest concentration of the compound necessary to cause a 50 percent reduction in cytopathic effect, Polio-2
[9] = HeLa cells, RV-1A, 48 and 72 hours
[10] = HeLa cells, RV-39, 48 and 72 hours
[11] = HeLa cells, RV-2, 48 and 72 hours
[12] = HeLa cells, RV-64, 48 and 72 hours

SMILES | EC50 [1, 9] [µg/mL] | EC50 [2, 10] [µg/mL] | Continuous Oral Feeding X^2 (chi-square, mortality) [3] | MCC [4] [µg/mL] | EC50 [5, 11] [µg/mL] | EC50 [6] [µg/mL] | EC50 [7, 12] [µg/mL] | EC50 [8] [µg/mL] | EC50 ([2]; HeLa) [µg/mL] | EC50 ([1]; HeLa) [µg/mL] | EC50 ([5]; HeLa) [µg/mL] | EC50 ([7]; HeLa) [µg/mL]
CCSc1ccc(Oc2ccc(Cl)c(Cl)c2)nc1C#N [Example 20, 6-(3,4-Dichlorophenoxy)-3-ethylthio-2-pyridinecarbonitrile] | 3.13 (≈ 9.62 µM) | 6.25 (≈ 19.2 µM) | 6.5 | > 12.5 | 3.13 (≈ 9.62 µM) | 0.03 (≈ 0.0922 µM) | 12.5 (≈ 38.4 µM) | < 0.78 |  |  |  | 
CCSc1ccc(Oc2ccc(Cl)c(Cl)c2)c(C#N)n1 [Example 21, 3-(3,4-Dichlorophenoxy)-6-ethylthio-2-pyridinecarbonitrile] | 2.5 (≈ 7.69 µM) |  |  | 2.5 | 0.6 (≈ 1.84 µM) | 0.6 (≈ 1.84 µM) | 2.5 (≈ 7.69 µM) |  |  |  |  | 
CCSc1cnc(Oc2ccc(Cl)c(Cl)c2)cc1C#N [Example 22, 2-(3,4-Dichlorophenoxy)-5-ethylthio-4-pyridinecarbonitrile] | > 50 |  |  | 50 | 2.5 (≈ 7.69 µM) | 0.63 (≈ 1.94 µM) |  |  |  |  |  | 
CCSc1cc(C#N)c(Oc2ccc(Cl)c(Cl)c2)cn1 [Example 23, 5-(3,4-Dichlorophenoxy)-2-ethylthio-4-pyridinecarbonitrile] | > 50 |  |  | 50 | 2.5 (≈ 7.69 µM) | 2.5 (≈ 7.69 µM) |  |  |  |  |  | 
CSc1cc(C#N)c(Oc2ccc(Cl)c(Cl)c2)cn1 [Example 24, 5-(3,4-Dichlorophenoxy)-2-methylthio-4-pyridinecarbonitrile] | > 50 |  |  | > 50 | > 50 | 1.25 (≈ 4.02 µM) | > 50 |  |  |  |  | 
CSc1ccc(Oc2ccc(Cl)c(Cl)c2)nc1C#N [Example 25, 6-(3,4-Dichlorophenoxy)-3-methylthio-2-pyridinecarbonitrile] | 25 (≈ 80.3 µM) |  |  | > 50 |  | < 3.1 |  |  |  |  |  | 
CCSc1ccc(Oc2ccc(C(=O)c3ccccc3)cc2)nc1C#N [Example 26, 6-(4-Benzoylphenoxy)-3-ethylthio-2-pyridinecarbonitrile] | 25 (≈ 69.4 µM) |  | 27.5 | 50 | < 3.1 | < 3.1 |  |  |  |  |  | 
CCSc1ncc(Oc2ccc(Cl)c(Cl)c2)cc1C#N [Example 27, 5-(3,4-Dichlorophenoxy)-2-ethylthio-3-pyridinecarbonitrile] |  |  |  | > 50 |  | < 3.13 |  |  |  |  |  | 
CCSc1cnc(Oc2ccc(Cl)c(Cl)c2)c(C#N)c1 [Example 28, 2-(3,4-Dichlorophenoxy)-5-ethylthio-3-pyridinecarbonitrile] | > 50 |  |  | > 50 | > 50 | 1.25 (≈ 3.84 µM) | > 50 |  |  |  |  | 
C[S+]([O-])c1ccc(Oc2ccc(Cl)c(Cl)c2)nc1C#N (stereo not drawn) [Example 29, 6-(3,4-Dichlorophenoxy)-3-methylsulfinyl-2-pyridinecarbonitrile] | 12.5 (≈ 38.2 µM) |  |  | > 50 | 12.5 (≈ 38.2 µM) | 12.5 (≈ 38.2 µM) |  |  |  |  |  | 
C[S+]([O-])c1ccc(Oc2ccc(Cl)c(Cl)c2)nc1C(N)=O (stereo not drawn) [Example 30, 6-(3,4-Dichlorophenoxy)-3-methylsulfinyl-2-pyridinecarboxamide] | 6.3 (≈ 18.2 µM) |  |  | 25 | 6.3 (≈ 18.2 µM) | < 3.1 |  |  |  |  |  | 
CC[S+]([O-])c1ccc(Oc2ccc(Cl)c(Cl)c2)nc1C#N (stereo not drawn) [Example 31, 6-(3,4-Dichlorophenoxy)-3-ethylsulfinyl-2-pyridinecarbonitrile] | 12.5 (≈ 36.6 µM) |  |  | 50 | 12.5 (≈ 36.6 µM) | < 3.1 |  |  |  |  |  | 
CS(=O)(=O)c1ccc(Oc2ccc(Cl)c(Cl)c2)nc1C#N [Example 32, 6-(3,4-Dichlorophenoxy)-3-methylsulfonyl-2-pyridinecarbonitrile] | 6.25 (≈ 18.2 µM) |  | 10.1 | > 12.5 | 6.25 (≈ 18.2 µM) | > 50 | 3.13 (≈ 9.12 µM) | > 12.5 | > 12.5 |  |  | 
CCS(=O)(=O)c1ccc(Oc2ccc(Cl)c(Cl)c2)nc1C#N [Example 33, 6-(3,4-Dichlorophenoxy)-3-ethylsulfonyl-2-pyridinecarbonitrile] |  |  |  | 50 | < 3.1 | < 3.1 |  |  |  |  |  | 
CCCSc1ccc(Oc2ccc(Cl)c(Cl)c2)nc1C#N [Example 34, 6-(3,4-Dichlorophenoxy)-3-propylthio-2-pyridinecarbonitrile] |  | 25 (≈ 73.7 µM) |  | > 50 | 3.13 (≈ 9.23 µM) | 0.08 (≈ 0.236 µM) | > 12.5 | 1.56 (≈ 4.6 µM) |  | 1.56 (≈ 4.6 µM) |  | 
CCCSc1ccc(Oc2ccc(Cl)c(Cl)c2)c(C#N)n1 [Example 35, 3-(3,4-Dichlorophenoxy)-6-propylthio-2-pyridinecarbonitrile] | 0.78 (≈ 2.3 µM) |  |  | 50 |  | < 3.13 |  | 12.5 (≈ 36.8 µM) | 12.5 (≈ 36.8 µM) |  | 12.5 (≈ 36.8 µM) | > 12.5
CC(C)Sc1ccc(Oc2ccc(Cl)c(Cl)c2)nc1C#N [Example 36, 6-(3,4-Dichlorophenoxy)-3-isopropylthio-2-pyridinecarbonitrile] | ≤ 1.56 | 1.56 (≈ 4.6 µM) |  | 12.5 | ≤ 1.56 | < 1.56 | 3.13 (≈ 9.23 µM) |  |  |  |  | 
CC(C)Sc1ccc(Oc2ccc(Cl)c(Cl)c2)c(C#N)n1 [Example 37, 3-(3,4-Dichlorophenoxy)-6-isopropylthio-2-pyridinecarbonitrile] | 3.13 (≈ 9.23 µM) |  |  | ≥ 25 | < 1.56 | < 1.56 | ≤ 1.56 |  |  |  |  | 
CCCCSc1ccc(Oc2ccc(Cl)c(Cl)c2)nc1C#N [Example 38, 6-(3,4-Dichlorophenoxy)-3-(n-butylthio)-2-pyridinecarbonitrile] | 12.5 (≈ 35.4 µM) |  |  | > 25 | 6.25 (≈ 17.7 µM) | < 1.56 | 12.5 (≈ 35.4 µM) |  |  |  |  | 
CCCCSc1ccc(Oc2ccc(Cl)c(Cl)c2)c(C#N)n1 [Example 39, 3-(3,4-Dichlorophenoxy)-6-(n-butylthio)-2-pyridinecarbonitrile] | > 25 |  |  | ≥ 25 | 3.13 (≈ 8.86 µM) | 1.56 (≈ 4.42 µM) | 12.5 (≈ 35.4 µM) |  |  |  |  | 
CCC(C)Sc1ccc(Oc2ccc(Cl)c(Cl)c2)nc1C#N (stereo not drawn) [Example 40, 6-(3,4-Dichlorophenoxy)-3-(sec-butylthio)-2-pyridinecarbonitrile] | 1.56 (≈ 4.42 µM) | 10 (≈ 28.3 µM) |  | > 25 | 1.25 (≈ 3.54 µM) | 0.16 (≈ 0.453 µM) | 1.56 (≈ 4.42 µM) |  |  |  |  | 
CCC(C)Sc1ccc(Oc2ccc(Cl)c(Cl)c2)c(C#N)n1 (stereo not drawn) [Example 41, 3-(3,4-Dichlorophenoxy)-6-(sec-butylthio)-2-pyridinecarbonitrile] | 6.25 (≈ 17.7 µM) |  |  | > 25 | < 1.56 | ≤ 1.56 | < 1.56 |  |  |  |  | 
CC(C)CSc1ccc(Oc2ccc(Cl)c(Cl)c2)nc1C#N [Example 42, 6-(3,4-Dichlorophenoxy)-3-(isobutylthio)-2-pyridinecarbonitrile] | 12.5 (≈ 35.4 µM) |  |  | > 25 | 6.25 (≈ 17.7 µM) | < 1.56 | 6.25 (≈ 17.7 µM) |  |  |  |  | 
CC(C)CSc1ccc(Oc2ccc(Cl)c(Cl)c2)c(C#N)n1 [Example 43, 3-(3,4-Dichlorophenoxy)-6-(isobutylthio)-2-pyridinecarbonitrile] | 12.5 (≈ 35.4 µM) |  |  | ≥ 25 | ≤ 1.56 | 1.56 (≈ 4.42 µM) | 3.13 (≈ 8.86 µM) |  |  |  |  | 
